Results: US20240199612A1, “IMIDAZOPYRIDINYL INHIBITORS OF PLASMA KALLIKREIN” (SHIRE HUMAN GENETIC THERAPIES, INC., priority 2021, published 2024)

How the values were obtained:
[1] = target: human activated kallikrein enzyme (Homo sapiens, UniProt P03952); assay: Inhibition of human activated plasma kallikrein, fluorogenic peptide substrate (PFR-AMC) assay, 500 pM enzyme format; format: biochemical; settings: format with 500 pM activated kallikrein, 300 uM PFR-AMC, 30 min preincubation, 10 min reaction, room temperature; read-out: Primary Dose Response Assay: Average EC50
Description: Inhibitory Activity of Exemplary Compounds against Plasma Kallikrein.
Compounds were evaluated for inhibition of the human activated kallikrein enzyme in two formats of an assay employing a fluorogenic peptide substrate. In one assay format, the concentrations of reagents were as follows: 20 mM Tris pH 7.5, 1 mM EDTA, 150 mM sodium chloride, 0.1% PEG-400, 0.1% Triton X-100, 500 pM activated kallikrein enzyme, 300 uM Pro-Phe-Arg-7-amido-4-methylcoumarin (PFR-AMC) substrate. Prior to reaction initiation with substrate, enzyme and inhibitors were preincubated for 30 min at room temperature. After initiation with substrate, reactions were incubated for 10 min at room temperature and fluorescence emission at 460 nm from 380 nm excitation measured with a microplate reader. In another assay format, the concentrations of reagents were as follows: 20 mM Tris pH 7.5, 1 mM EDTA, 150 mM sodium chloride, 0.1% PEG-400, 0.1% Triton X-100, 5 pM activated kallikrein enzyme, 300 uM PFR-AMC substrate. Prior to reaction initiation with substrate, enzyme and inhibitors were preincubated for 30 min at room temperature. After initiation with substrate, reactions were incubated for 18 hr at room temperature and fluorescence emission at 460 nm from 380 nm excitation measured with a microplate reader.

[2] = target: T1, plasma kallikrein (Homo sapiens, UniProt P03952); assay: Neat human plasma assay (contact pathway-activated plasma, FXIIa, PFR-AMC substrate); format: biochemical; settings: sodium citrate human plasma, 78% final plasma, 10 nM human FXIIa, 100 μM PFR-AMC, room temperature
T1 construct: from tissue; host or cells: sodium citrate collected human plasma (78% final)
Description: Neat Human and Rat Plasma Assay
To analyze inhibition of plasma kallikrein in an ex vivo setting, the potency of compounds was measure in contact pathway-activated plasma assays. In a fluorogenic peptide substrate assay, test compounds dissolved in DMSO were added to sodium citrate collected human or rat plasma in a 96-well microplate. Alternatively, citrated plasma was collected from rats administered the compounds orally or by IV. 10 nM of human FXIIa (Enzyme Research Laboratories) diluted in PKa buffer (20 mM Tris-HCl, pH 7.5, 150 mM NaCl, 1 mM EDTA, 0.1% PEG-8000, and 0.1% Triton X-100) was added to the plasma, followed by the 100 μM of the profluorescent, synthetic plasma kallikrein substrate PFR-AMC (also diluted in PKa buffer). Final plasma concentration in the reaction was 78%. Fluorescence was immediately monitored by excitation/emission wavelengths of 360 nm/480 nm respectively over a period of 5 minutes in a microplate reader. The resulting linear increase in fluorescence emission (reflecting PKa proteolysis of PFR-AMC substrate) was fit to extract a proteolytic rate (fluorescent units over time), and this rate was subsequently plotted against compound inhibitor concentration. Resulting plots were fit to a standard 4-parameter IC50/IC90 equation to determine min/max values, IC50/90, and slope. All experimental steps were performed at room temperature.

Sequence of human activated kallikrein enzyme (P03952 391-638 limits assumed): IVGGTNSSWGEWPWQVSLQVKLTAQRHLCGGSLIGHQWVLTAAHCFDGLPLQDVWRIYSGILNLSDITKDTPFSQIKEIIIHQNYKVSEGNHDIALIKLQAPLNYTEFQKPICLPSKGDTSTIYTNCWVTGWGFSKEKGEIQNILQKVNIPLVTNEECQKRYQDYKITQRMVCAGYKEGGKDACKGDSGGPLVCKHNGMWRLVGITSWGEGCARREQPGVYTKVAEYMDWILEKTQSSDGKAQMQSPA
Sequence of human activated kallikrein enzyme (P03952 20-390 partner limits assumed): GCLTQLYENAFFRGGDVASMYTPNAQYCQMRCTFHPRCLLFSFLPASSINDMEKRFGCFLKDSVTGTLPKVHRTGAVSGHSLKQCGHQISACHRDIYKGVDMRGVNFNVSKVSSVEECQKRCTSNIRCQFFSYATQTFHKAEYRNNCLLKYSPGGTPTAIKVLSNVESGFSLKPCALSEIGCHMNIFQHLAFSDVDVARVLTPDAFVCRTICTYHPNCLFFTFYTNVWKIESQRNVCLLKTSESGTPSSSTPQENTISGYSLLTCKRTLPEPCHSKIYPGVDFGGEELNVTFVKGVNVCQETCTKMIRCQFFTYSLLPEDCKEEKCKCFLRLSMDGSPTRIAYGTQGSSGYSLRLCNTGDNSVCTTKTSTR
T1 sequence (P03952 391-638 limits assumed): as the sequence (P03952 391-638 limits assumed) above
T1 sequence (P03952 20-390 partner limits assumed): as the sequence (P03952 20-390 partner limits assumed) above

Row | EC50 [1] [nM] | IC90 [2] [nM] | SMILES
1 | 5 to 50 |  | O=C(Nc1cc(NCc2cn3cc(C4CC4)ccc3n2)ncn1)OCc1cccc(Cl)c1 [Compound I-1, 3-Chlorobenzyl (6-(((6-cyclopropylimidazo[1,2-a]pyridin-2-yl)methyl)amino)pyrimidin-4-yl)carbamate]
2 | < 5 |  | C[C@@H](OC(=O)Nc1cc(NCc2cn3cc(C4CC4)ccc3n2)ncn1)c1cccc(Cl)c1 [Compound I-2, (R)-1-(3-chlorophenyl)ethyl (6-(((6-cyclopropylimidazo[1,2-a]pyridin-2-yl)methyl)amino)pyrimidin-4-yl)carbamate]
3 | 500 to 9000 |  | C[C@H](OC(=O)Nc1cc(NCc2cn3cc(C4CC4)ccc3n2)ncn1)c1cccc(Cl)c1 [Compound I-3, (S)-1-(3-chlorophenyl)ethyl (6-(((6-cyclopropylimidazo[1,2-a]pyridin-2-yl)methyl)amino)pyrimidin-4-yl)carbamate]
4 | 50 to 500 |  | COc1cccc(COC(=O)Nc2cc(NCc3cn4cc(C5CC5)ccc4n3)ncn2)c1 [Compound I-4, 3-methoxybenzyl (6-(((6-cyclopropylimidazo[1,2-a]pyridin-2-yl)methyl)amino)pyrimidin-4-yl)carbamate]
5 | 50 to 500 |  | CCC(OC(=O)Nc1cc(NCc2cn3cc(C4CC4)ccc3n2)ncn1)c1cccc(Cl)c1 (centres unmarked) [Compound I-6, 1-(3-chlorophenyl)propyl (6-(((6-cyclopropylimidazo[1,2-a]pyridin-2-yl)methyl)amino)pyrimidin-4-yl)carbamate]
6 | 5 to 50 |  | CC(OC(=O)Nc1cc(NCc2cn3cc(C4CC4)ccc3n2)ncn1)c1cccc(Cl)c1F (centres unmarked) [Compound I-7, 1-(3-chloro-2-fluorophenyl)ethyl (6-(((6-cyclopropylimidazo[1,2-a]pyridin-2-yl)methyl)amino)pyrimidin-4-yl)carbamate]
7 | < 5 | ≤ 2500 | O=C(Nc1cc(NCc2cn3cc(C4CC4)ccc3n2)ncn1)OCc1cc(Cl)ccc1-n1cnnn1 [Compound I-8, 5-chloro-2-(1H-tetrazol-1-yl)benzyl (6-(((6-cyclopropylimidazo[1,2-a]pyridin-2-yl)methyl)amino)pyrimidin-4-yl)carbamate]
8 | 5 to 50 |  | O=C(Nc1cc(NCc2cn3cc(C4CC4)ccc3n2)ncn1)OCC(O)c1cccc(Cl)c1 (centres unmarked) [Compound I-9, 2-(3-chlorophenyl)-2-hydroxyethyl (6-(((6-cyclopropylimidazo[1,2-a]pyridin-2-yl)methyl)amino)pyrimidin-4-yl)carbamate]
9 | < 5 | 2500 to 7500 | O=C(NCc1cc(Cl)ccc1-n1cnnn1)Nc1cc(NCc2cn3cc(C4CC4)ccc3n2)ccn1 [Compound I-10, 1-(5-chloro-2-(1H-tetrazol-1-yl)benzyl)-3-(4-(((6-cyclopropylimidazo[1,2-a]pyridin-2-yl)methyl)amino)pyridin-2-yl)urea]
10 | < 5 | 2500 to 7500 | O=C(Nc1cc(NCc2cn3cc(C4CC4)ccc3n2)ccn1)OCc1cc(Cl)ccc1-n1cnnn1 [Compound I-11, 5-chloro-2-(1H-tetrazol-1-yl)benzyl (4-(((6-cyclopropylimidazo[1,2-a]pyridin-2-yl)methyl)amino)pyridin-2-yl)carbamate]
11 | 50 to 500 |  | O=C(Nc1cn2c(Cc3cn4cc(C5CC5)ccc4n3)nnc2cn1)OCc1cccc(Cl)c1 [Compound I-14, 3-chlorobenzyl (3-((6-cyclopropylimidazo[1,2-a]pyridin-2-yl)methyl)-[1,2,4]triazolo[4,3-a]pyrazin-6-yl)carbamate]
12 | 50 to 500 |  | O=C(Nc1cc2c(cn1)ncn2Cc1cn2cc(C3CC3)ccc2n1)OCc1cccc(Cl)c1 [Compound I-16, 3-chlorobenzyl (1-((6-cyclopropylimidazo[1,2-a]pyridin-2-yl)methyl)-1H-imidazo[4,5-c]pyridin-6-yl)carbamate]
13 | 50 to 500 |  | CC(OC(=O)Nc1cc2c(cn1)ncn2Cc1cn2cc(C3CC3)ccc2n1)c1cccc(Cl)c1 (centres unmarked) [Compound I-17, 1-(3-chlorophenyl)ethyl (1-((6-cyclopropylimidazo[1,2-a]pyridin-2-yl)methyl)-1H-imidazo[4,5-c]pyridin-6-yl)carbamate]
14 | 5 to 50 |  | O=C(Nc1nccc2nn(Cc3cn4cc(C5CC5)ccc4n3)cc12)OCc1cccc(Cl)c1 [Compound I-19]
15 | 50 to 500 |  | O=C(Nc1cc2c(cn1)nnn2Cc1cn2cc(C3CC3)ccc2n1)OCc1cccc(Cl)c1 [Compound I-20, 3-chlorobenzyl (1-((6-cyclopropylimidazo[1,2-a]pyridin-2-yl)methyl)-1H-[1,2,3]triazolo[4,5-c]pyridin-6-yl)carbamate]
16 | < 5 |  | O=C(Nc1nccc2nn(Cc3cn4cc(C5CC5)ccc4n3)cc12)OCc1cc(Cl)ccc1-n1cnnn1 [Compound I-22, 5-chloro-2-(1H-tetrazol-1-yl)benzyl (2-((6-cyclopropylimidazo[1,2-a]pyridin-2-yl)methyl)-2H-pyrazolo[4,3-c]pyridin-4-yl)carbamate]
17 | < 5 |  | O=C(Nc1cc2c(cn1)ncn2Cc1cn2cc(C3CC3)ccc2n1)OCc1cc(Cl)ccc1-n1cnnn1 [Compound I-23, 5-chloro-2-(1H-tetrazol-1-yl)benzyl (1-((6-cyclopropylimidazo[1,2-a]pyridin-2-yl)methyl)-1H-imidazo[4,5-c]pyridin-6-yl)carbamate]
18 | 500 to 9000 |  | O=C(NCc1cccc(Cl)c1)Nc1cc(NCc2cn3cc(C4CC4)ccc3n2)ncn1 [Compound I-24, 1-(3-chlorobenzyl)-3-(6-(((6-cyclopropylimidazo[1,2-a]pyridin-2-yl)methyl)amino)pyrimidin-4-yl)urea]
19 | > 9000 |  | O=C(Nc1cc(NCc2cn3cc(C4CC4)ccc3n2)ncn1)N1CC(c2cccc(Cl)c2)C1 [Compound I-25, 3-(3-chlorophenyl)-N-(6-(((6-cyclopropylimidazo[1,2-a]pyridin-2-yl)methyl)amino)pyrimidin-4-yl)azetidine-1-carboxamide]
20 | 50 to 500 |  | O=C(NCc1cc(Cl)ccn1)Nc1cc(NCc2cn3cc(C4CC4)ccc3n2)ncn1 [Compound I-27, 1-((4-chloropyridin-2-yl)methyl)-3-(6-(((6-cyclopropylimidazo[1,2-a]pyridin-2-yl)methyl)amino)pyrimidin-4-yl)urea]
21 | 50 to 500 |  | O=C(NCc1nccc(Cl)n1)Nc1cc(NCc2cn3cc(C4CC4)ccc3n2)ncn1 [Compound I-29, 1-((4-chloropyrimidin-2-yl)methyl)-3-(6-(((6-cyclopropylimidazo[1,2-a]pyridin-2-yl)methyl)amino)-pyrimidin-4-yl)urea]
22 | 500 to 9000 |  | COc1ccnc(CNC(=O)Nc2cc(NCc3cn4cc(C5CC5)ccc4n3)ncn2)n1 [Compound I-30, 1-(6-(((6-cyclopropylimidazo[1,2-a]pyridin-2-yl)methyl)amino)pyrimidin-4-yl)-3-((4-methoxypyrimidin-2-yl)methyl)urea]
23 | 500 to 9000 |  | O=C(Nc1cc(N2C[C@@H](O)C[C@@H]2c2cn3cc(C4CC4)ccc3n2)ncn1)N1CC(c2ccccc2)C1 [Compound I-31, N-(6-((2R,4S)-2-(6-cyclopropylimidazo[1,2-a]pyridin-2-yl)-4-hydroxypyrrolidin-1-yl)pyrimidin-4-yl)-3-phenylazetidine-1-carboxamide]
24 | 500 to 9000 |  | O=C(Nc1cc(NCc2cn3cc(C4CC4)ccc3n2)ncn1)NC1Cc2ccc(Cl)cc21 (centres unmarked) [Compound I-32, 1-(4-chlorobicyclo[4.2.0]octa-1(6),2,4-trien-7-yl)-3-(6-(((6-cyclopropylimidazo[1,2-a]pyridin-2-yl)methyl)amino)pyrimidin-4-yl)urea]
25 | 50 to 500 |  | O=C(Nc1cc(N2C[C@@H](O)C[C@@H]2c2cn3cc(C4CC4)ccc3n2)ncn1)N1CC(c2ncccn2)C1 [Compound I-33, N-(6-((2R,4S)-2-(6-cyclopropylimidazo[1,2-a]pyridin-2-yl)-4-hydroxypyrrolidin-1-yl)pyrimidin-4-yl)-3-(pyrimidin-2-yl)azetidine-1-carboxamide]
26 | 5 to 50 |  | Cc1ccnc(COC(=O)Nc2cc(NCc3cn4cc(C5CC5)ccc4n3)ncn2)n1 [Compound I-34, (4-methylpyrimidin-2-yl)methyl (6-(((6-cyclopropylimidazo[1,2-a]pyridin-2-yl)methyl)amino)pyrimidin-4-yl)carbamate]
